US12662479B2 (Foghorn Therapeutics Inc., priority 2020, dated 2026)

How the values were obtained:
[1] = molecular target: T1, HiBit-BRG1 fusion protein (Homo sapiens, UniProt P51532); test: HiBiT-BRG1 cell-based degradation assay (Nano-Glo HiBiT Lytic Detection, 24 h); details: HeLa cells expressing HiBit-BRG1 and LgBit; for DC50: read-out: BRG1 HiBit Degradation IC50; for Dmax: HeLa, top dose 30 μM, read-out: BRG1 HiBit Degradation Maximum measured
T1 construct: expressed in transfected cells
Procedure, shortened: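 Degradation is scaled from DMSO-treated cells (0%) to cells given 2 μM of a known BRM/BRG1 degrader (100%). HeLa cells stably carrying HiBiT-BRG1 plus LgBiT (5000/well) were lysed with Nano-Glo HiBiT detection reagent, shaken 10 min at RT, and luminescence read.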

HiBit-BRM fusion protein = molecular target: T2, HiBit-BRM fusion protein (Homo sapiens, UniProt P51531); test: HiBiT-BRM cell-based degradation assay (Nano-Glo HiBiT Lytic Detection, 24 h); details: HeLa cells expressing HiBiT-BRM; for DC50: read-out: BRM HiBit Degradation IC50; for BRM HiBit Degradation Maximum measured: top dose 30 μM
T2 construct: expressed in transfected cells
T2 sequence (P51531 whole entry, the tested form may be a part): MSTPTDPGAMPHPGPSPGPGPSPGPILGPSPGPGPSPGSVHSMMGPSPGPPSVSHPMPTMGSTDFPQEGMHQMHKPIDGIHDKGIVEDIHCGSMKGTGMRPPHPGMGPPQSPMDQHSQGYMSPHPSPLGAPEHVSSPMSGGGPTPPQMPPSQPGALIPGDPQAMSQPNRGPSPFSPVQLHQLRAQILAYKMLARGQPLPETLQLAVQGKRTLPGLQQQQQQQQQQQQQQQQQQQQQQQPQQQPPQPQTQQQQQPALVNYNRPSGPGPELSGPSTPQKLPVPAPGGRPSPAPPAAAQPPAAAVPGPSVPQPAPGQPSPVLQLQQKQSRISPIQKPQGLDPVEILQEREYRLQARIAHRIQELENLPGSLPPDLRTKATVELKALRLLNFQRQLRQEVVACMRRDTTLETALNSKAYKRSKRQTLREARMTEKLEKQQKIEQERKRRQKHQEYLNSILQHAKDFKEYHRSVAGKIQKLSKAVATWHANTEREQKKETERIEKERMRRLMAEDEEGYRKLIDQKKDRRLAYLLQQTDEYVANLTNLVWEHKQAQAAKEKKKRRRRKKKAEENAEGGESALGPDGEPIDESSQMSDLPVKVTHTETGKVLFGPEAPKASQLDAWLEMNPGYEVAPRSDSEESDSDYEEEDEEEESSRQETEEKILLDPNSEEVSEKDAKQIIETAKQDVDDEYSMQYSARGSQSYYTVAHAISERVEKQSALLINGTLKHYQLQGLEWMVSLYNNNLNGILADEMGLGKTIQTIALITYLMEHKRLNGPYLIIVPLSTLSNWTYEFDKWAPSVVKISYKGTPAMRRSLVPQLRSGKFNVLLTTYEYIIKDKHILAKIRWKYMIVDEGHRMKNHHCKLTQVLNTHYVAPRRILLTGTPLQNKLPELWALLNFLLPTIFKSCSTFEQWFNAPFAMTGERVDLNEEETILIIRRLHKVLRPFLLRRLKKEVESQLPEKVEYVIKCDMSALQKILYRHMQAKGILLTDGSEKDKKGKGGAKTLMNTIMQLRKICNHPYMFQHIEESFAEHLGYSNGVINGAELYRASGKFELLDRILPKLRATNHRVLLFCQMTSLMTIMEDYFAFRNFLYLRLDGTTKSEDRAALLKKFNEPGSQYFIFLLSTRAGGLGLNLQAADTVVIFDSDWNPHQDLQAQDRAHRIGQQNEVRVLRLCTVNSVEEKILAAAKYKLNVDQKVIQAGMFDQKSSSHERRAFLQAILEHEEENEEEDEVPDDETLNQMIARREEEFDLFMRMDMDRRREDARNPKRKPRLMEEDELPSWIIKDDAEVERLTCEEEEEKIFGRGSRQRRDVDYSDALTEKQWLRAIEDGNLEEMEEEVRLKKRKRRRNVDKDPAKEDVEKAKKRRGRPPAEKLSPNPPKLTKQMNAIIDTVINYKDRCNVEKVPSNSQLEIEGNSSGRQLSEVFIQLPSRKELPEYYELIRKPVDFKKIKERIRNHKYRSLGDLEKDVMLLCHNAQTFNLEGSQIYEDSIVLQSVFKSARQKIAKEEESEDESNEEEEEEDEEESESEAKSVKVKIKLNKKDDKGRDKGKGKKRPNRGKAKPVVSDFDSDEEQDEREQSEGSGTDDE
Procedure, shortened: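 Percent BRM loss was derived from HiBiT luminescence relative to DMSO-treated cells and cells given 2 μM of a known BRM/BRG1 degrader. Treatment lasted 24 h in HiBiT-BRM HeLa cells, with a top final concentration of 30 μM.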

T1 sequence (P51532 whole entry, the tested form may be a part): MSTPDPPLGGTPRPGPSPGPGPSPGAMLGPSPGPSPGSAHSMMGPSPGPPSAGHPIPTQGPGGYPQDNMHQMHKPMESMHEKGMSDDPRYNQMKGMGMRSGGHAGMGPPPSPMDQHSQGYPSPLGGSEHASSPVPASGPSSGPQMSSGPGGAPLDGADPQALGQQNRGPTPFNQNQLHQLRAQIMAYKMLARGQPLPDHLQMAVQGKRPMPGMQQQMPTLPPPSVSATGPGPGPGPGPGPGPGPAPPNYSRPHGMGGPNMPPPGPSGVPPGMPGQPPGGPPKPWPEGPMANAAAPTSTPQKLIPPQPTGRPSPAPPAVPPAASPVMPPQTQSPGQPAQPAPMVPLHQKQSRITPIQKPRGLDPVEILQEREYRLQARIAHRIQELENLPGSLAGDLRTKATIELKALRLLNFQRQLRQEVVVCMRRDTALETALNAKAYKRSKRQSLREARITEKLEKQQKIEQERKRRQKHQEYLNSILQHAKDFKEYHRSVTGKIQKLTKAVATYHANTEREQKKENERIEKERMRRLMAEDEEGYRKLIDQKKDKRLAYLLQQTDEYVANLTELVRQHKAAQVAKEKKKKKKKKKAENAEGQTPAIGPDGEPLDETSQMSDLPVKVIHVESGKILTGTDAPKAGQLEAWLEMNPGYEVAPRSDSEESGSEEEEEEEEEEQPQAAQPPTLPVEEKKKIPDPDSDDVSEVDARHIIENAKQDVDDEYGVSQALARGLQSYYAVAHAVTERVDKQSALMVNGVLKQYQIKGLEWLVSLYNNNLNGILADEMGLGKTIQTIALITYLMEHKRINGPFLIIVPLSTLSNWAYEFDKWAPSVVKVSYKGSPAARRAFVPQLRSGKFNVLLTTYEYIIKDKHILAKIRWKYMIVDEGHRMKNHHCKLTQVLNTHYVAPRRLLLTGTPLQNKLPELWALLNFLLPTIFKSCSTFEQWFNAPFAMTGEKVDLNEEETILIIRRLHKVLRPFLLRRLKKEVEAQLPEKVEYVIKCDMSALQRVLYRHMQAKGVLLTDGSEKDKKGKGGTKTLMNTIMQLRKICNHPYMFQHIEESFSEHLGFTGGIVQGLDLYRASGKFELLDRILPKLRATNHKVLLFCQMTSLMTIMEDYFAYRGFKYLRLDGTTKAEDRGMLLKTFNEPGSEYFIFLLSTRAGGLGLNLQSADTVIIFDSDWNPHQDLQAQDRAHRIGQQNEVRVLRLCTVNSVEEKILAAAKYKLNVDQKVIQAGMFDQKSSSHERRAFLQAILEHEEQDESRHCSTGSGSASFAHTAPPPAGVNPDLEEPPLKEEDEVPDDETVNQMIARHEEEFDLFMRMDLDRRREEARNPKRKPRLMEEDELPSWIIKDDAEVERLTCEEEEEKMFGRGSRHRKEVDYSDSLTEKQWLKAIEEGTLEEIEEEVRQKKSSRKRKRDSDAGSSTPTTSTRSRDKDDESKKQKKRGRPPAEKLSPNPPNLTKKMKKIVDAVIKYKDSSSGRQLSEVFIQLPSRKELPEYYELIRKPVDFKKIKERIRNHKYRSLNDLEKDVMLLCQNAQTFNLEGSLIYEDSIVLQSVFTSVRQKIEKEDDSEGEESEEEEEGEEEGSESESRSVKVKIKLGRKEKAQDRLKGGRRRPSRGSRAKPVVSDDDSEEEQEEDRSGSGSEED

SMILES	DC50 [1] [µM]	Dmax [1] [%]	DC50 (HiBit-BRM fusion protein) [µM]	BRM HiBit Degradation Maximum measured (HiBit-BRM fusion protein)
Cc1ncsc1-c1ccc(CNC(=O)[C@@H]2C[C@@H](O)CN2C(=O)[C@@H](NC(=O)COCCOCCOCCOCC(=O)NCc2cccc(-c3cccc(-c4csc(NC(=O)CNC(=O)c5ccn(S(C)(=O)=O)c5)n4)c3)c2)C(C)(C)C)cc1 [Compound 121, N1-((S)-1-((2S,4R)-4-hydroxy-2-((4-(4-methylthiazol-5-yl)benzyl)carbamoyl)pyrrolidin-1-yl)-3,3-dimethyl-1-oxobutan-2-yl)-N14-((3′-(2-(2-(1-(methylsulfonyl)-1H-pyrrole-3-carboxamido)acetamido)thiazol-4-yl)-[1,1′-biphenyl]-3-yl)methyl)-3,6,9,12-tetraoxatetradecane-1,14-diamide]	1 to 10	50 to 75	1 to 10	B (‘B’ = Maximum degradation ≥50% and ≤75%)
CS(=O)(=O)n1ccc(C(=O)NCC(=O)Nc2nc(-c3cccc(-c4ccnc(C5(C(=O)NCCNc6cccc7c6CN(C6CCC(=O)NC6=O)C7=O)CC5)c4)c3)cs2)c1 (stereo not shown) [Compound 169, N-(2-((4-(3-(2-(1-((2-((2-(2,6-dioxopiperidin-3-yl)-1-oxoisoindolin-4-yl)amino)ethyl)carbamoyl)cyclopropyl)pyridin-4-yl)phenyl)thiazol-2-yl)amino)-2-oxoethyl)-1-(methylsulfonyl)-1H-pyrrole-3-carboxamide]	> 10	< 50	> 10	C (‘C’ = Maximum degradation <50%)
CS(=O)(=O)n1ccc(C(=O)NCC(=O)Nc2nc(-c3cccc(-c4ccnc(C5(C(=O)N6CC(CCOc7cccc8c7C(=O)N(C7CCC(=O)NC7=O)C8=O)C6)CC5)c4)c3)cs2)c1 (stereo not shown) [Compound 136, N-[4-[3-(2-[1-[3-(2-[[2-(2,6-dioxopiperidin-3-yl)-1,3-dioxoisoindol-4-yl]oxy]ethyl)azetidine-1-carbonyl]cyclopropyl]pyridin-4-yl)phenyl]-1,3-thiazol-2-yl]-2-[(1-methanesulfonylpyrrol-3-yl)formamido]acetamide]	> 10	< 50	> 10	C (‘C’ = Maximum degradation <50%)
Cc1ncsc1-c1ccc(CNC(=O)[C@@H]2C[C@@H](O)CN2C(=O)[C@@H](NC(=O)COCCOCCNC(=O)CCCOC[C@H](NC(=O)c2ccn(S(C)(=O)=O)c2)C(=O)Nc2nc(-c3ccccc3)cs2)C(C)(C)C)cc1 [Compound 173, (2S,4R)-4-hydroxy-1-[(2S)-2-[2-[2-(2-[4-[(2S)-2-[(1-methanesulfonylpyrrol-3-yl)formamido]-2-[(4-phenyl-1,3-thiazol-2-yl)carbamoyl]ethoxy]butanamido]ethoxy)ethoxy]acetamido]-3,3-dimethylbutanoyl]-N-[[4-(4-methyl-1,3-thiazol-5-yl)phenyl]methyl]pyrrolidine-2-carboxamide]	> 10	< 50	> 10	C (‘C’ = Maximum degradation <50%)
Cc1ncsc1-c1ccc(CNC(=O)[C@@H]2C[C@@H](O)CN2C(=O)[C@@H](NC(=O)CCCCCCCNC(=O)C2(c3cc(-c4cccc(-c5csc(NC(=O)CNC(=O)c6ccn(S(C)(=O)=O)c6)n5)c4)ccn3)CC2)C(C)(C)C)cc1 [Compound 99, N-(2-((4-(3-(2-(1-((8-(((S)-1-((2S,4R)-4-hydroxy-2-((4-(4-methylthiazol-5-yl)benzyl)carbamoyl)pyrrolidin-1-yl)-3,3-dimethyl-1-oxobutan-2-yl)amino)-8-oxooctyl)carbamoyl)cyclopropyl)-pyridin-4-yl)phenyl)thiazol-2-yl)amino)-2-oxoethyl)-1-(methylsulfonyl)-1H-pyrrole-3-carboxamide]	< 0.1	> 75	< 0.1	A (‘A’ = Maximum degradation >75%)
CS(=O)(=O)n1ccc(C(=O)N[C@@H](CCOCCCC(=O)NCCOc2cccc(OCCNc3ccc4c(c3)C(=O)N(C3CCC(=O)NC3=O)C4=O)c2)C(=O)Nc2nc(-c3ccccc3)cs2)c1 (stereo partly drawn) [Compound 285, (2S)-4-[3-([2-[3-(2-[[2-(2,6-dioxopiperidin-3-yl)-1,3-dioxoisoindol-5-yl]amino]ethoxy)phenoxy]ethyl]carbamoyl)propoxy]-2-[(1-methanesulfonylpyrrol-3-yl)formamido]-N-(4-phenyl-1,3-thiazol-2-yl)butanamide]	> 10	< 50	> 10	C (‘C’ = Maximum degradation <50%)
CS(=O)(=O)n1ccc(C(=O)N[C@@H](CCOCCCC(=O)NCCOc2cccc(OCCNc3cccc4c3C(=O)N(C3CCC(=O)NC3=O)C4=O)c2)C(=O)Nc2nc(-c3ccccc3)cs2)c1 (stereo partly drawn) [Compound 270, (2S)-4-[3-([2-[3-(2-[[2-(2,6-dioxopiperidin-3-yl)-1,3-dioxoisoindol-4-yl]amino]ethoxy)phenoxy]ethyl]carbamoyl)propoxy]-2-[(1-methanesulfonylpyrrol-3-yl)formamido]-N-(4-phenyl-1,3-thiazol-2-yl)butanamide]	> 10	< 50	> 10	C (‘C’ = Maximum degradation <50%)
Cc1ncsc1-c1ccc(CNC(=O)[C@@H]2C[C@@H](O)CN2C(=O)[C@@H](NC(=O)COCCOCCNC(=O)CCCOCC[C@H](NC(=O)c2ccn(S(C)(=O)=O)c2)C(=O)Nc2nc(-c3ccccc3)cs2)C(C)(C)C)cc1 [Compound 249, (2S,4R)-4-hydroxy-1-[(2S)-2-[2-[2-(2-[4-[(3S)-3-[(1-methanesulfonylpyrrol-3-yl)formamido]-3-[(4-phenyl-1,3-thiazol-2-yl)carbamoyl]propoxy]butanamido]ethoxy)ethoxy]acetamido]-3,3-dimethylbutanoyl]-N-[[4-(4-methyl-1,3-thiazol-5-yl)phenyl]methyl]pyrrolidine-2-carboxamide]	> 10	< 50	> 10	C (‘C’ = Maximum degradation <50%)
CS(=O)(=O)n1ccc(C(=O)NCC(=O)Nc2nc(-c3cccc(-c4ccnc(C5(C(=O)NCCCC#Cc6cccc7c6C(=O)N(C6CCC(=O)NC6=O)C7=O)CC5)c4)c3)cs2)c1 (stereo not shown) [Compound 152, N-[5-[2-(2,6-dioxopiperidin-3-yl)-1,3-dioxoisoindol-4-yl]pent-4-yn-1-yl]-1-[4-[3-(2-[2-[(1-methanesulfonylpyrrol-3-yl)formamido]acetamido]-1,3-thiazol-4-yl)phenyl]pyridin-2-yl]cyclopropane-1-carboxamide]	> 10	< 50	> 10	C (‘C’ = Maximum degradation <50%)
CN(CC(=O)N1CC(COc2cccc3c2C(=O)N(C2CCC(=O)NC2=O)C3=O)C1)c1cc(-c2cccc(-c3csc(NC(=O)CNC(=O)c4ccn(S(C)(=O)=O)c4)n3)c2)ccn1 (stereo not shown) [Compound 27]	> 10	< 50	> 10	C (‘C’ = Maximum degradation <50%)
CS(=O)(=O)n1ccc(C(=O)NCC(=O)Nc2nc(-c3cccc(-c4ccnc(C5(C(=O)NCCCCS(=O)(=O)CCCNc6cccc7c6C(=O)N(C6CCC(=O)NC6=O)C7=O)CC5)c4)c3)cs2)c1 (stereo not shown) [Compound 103, N-(2-((4-(3-(2-(1-((4-((3-((2-(2,6-dioxopiperidin-3-yl)-1,3-dioxoisoindolin-4-yl)amino)propyl)sulfonyl)butyl)carbamoyl)-cyclopropyl)pyridin-4-yl)phenyl)thiazol-2-yl)amino)-2-oxoethyl)-1-(methylsulfonyl)-1H-pyrrole-3-carboxamide]	0.1 to 1	> 75	0.1 to 1	B (‘B’ = Maximum degradation ≥50% and ≤75%)
CN(CC(=O)NCCCCCCCCNC(=O)COc1cccc2c1C(=O)N(C1CCC(=O)NC1=O)C2=O)c1cc(-c2cccc(-c3csc(NC(=O)CNC(=O)c4ccn(S(C)(=O)=O)c4)n3)c2)ccn1 (stereo not shown) [Compound 15, N-(2-((4-(3-(2-((2-((8-(2-((2-(2,6-dioxopiperidin-3-yl)-1,3-dioxoisoindolin-4-yl)oxy)acetamido)octyl)amino)-2-oxoethyl)(methyl)amino)pyridin-4-yl)phenyl)thiazol-2-yl)amino)-2-oxoethyl)-1-(methylsulfonyl)-1H-pyrrole-3-carboxamide]	> 10	< 50	> 10	C (‘C’ = Maximum degradation <50%)
Cc1c(C(=O)NCC(=O)Nc2nc(-c3cccc(-c4ccnc(N(C)CC(=O)N5CCC(C6CCN(C(=O)COc7cccc8c7C(=O)N(C7CCC(=O)NC7=O)C8=O)CC6)CC5)c4)c3)cs2)cn(S(C)(=O)=O)c1C (stereo not shown) [Compound 123, N-[2-[[4-[3-[2-[[2-[4-[1-[2-[2-(2,6-dioxo-3-piperidyl)-1,3-dioxo-isoindolin-4-yl]oxyacetyl]-4-piperidyl]-1-piperidyl]-2-oxo-ethyl]-methyl-amino]-4-pyridyl]phenyl]thiazol-2-yl]amino]-2-oxo-ethyl]-4,5-dimethyl-1-methylsulfonyl-pyrrole-3-carboxamide]	> 10	< 50	> 10	C (‘C’ = Maximum degradation <50%)
